Experimental data published in US10596263B2, “Pazopanib formulation” (Novartis AG, priority 2011, dated 2020).

What was measured:
[1] = Physical stability (form conversion) of reconstituted pazopanib suspension, monitored by XRPD; assay type: physicochemical
Procedure: Regarding the use of buffers, physical stability of the invented suspension was determined to be a function of pH, temperature, buffering system, and buffer strength as shown in Table I (some repeat runs are shown).
By removing the sodium citrate from the buffering system the rate of formation of the citrate salt under both refrigerated and long term storage conditions was impeded. Suspensions containing citric acid and sodium phosphate buffering system at pH 4.0 with buffer strength from 0.05 to 0.20 M and no PVP were all stable up to 43 days at refrigerated conditions. At long term storage conditions of 25° C./60% RH form conversion was detected at day 7 but the citrate salt was first observed on day 20.
Table 4 depicts a qualitatively similar formulation to the exemplary formulation, Example 1. Both formulations were manufactured using the same unit operations and processing parameters. […] At long term storage conditions of 25° C./60% RH or room temperature the physical stability of the comparative suspension monitored by XRPD indicated a mixture of forms were detected at day 7 compared with the exemplary formulation (Table 3) that was stability up to 34 days. It was determined that the use of citric acid and trisodium citrate buffer system speed the conversion to the pazopanib citrate salt. It is believed that this is driven by the smaller buffering capacity of citric acid and trisodium citrate buffer.

[2] = Solubility of pazopanib in water at various pH; assay type: physicochemical
From the text: FIG. 2 is a graph showing the solubility of pazopanib in water at various pH.
Based on the pH-solubility curve of pazopanib (FIG. 2) the solubility profile between pH 3 and pH 6 is on a steep slope and therefore, small changes in pH will have a large change in solubility. At the lower pH levels the citrate and monohydrate salts predominate and at the higher pH the freebase predominates. When the suspension is buffered at pH 3.5 and below with citric acid and sodium phosphate buffering system, the drug substance in the suspension changes form to the hydrate and Citrate salts in less than 17 days after reconstitution under refrigerated storage condition 5° C. […] Therefore, the compositions of this invention are such that when reconstituted they preferably provide a suspension with a pH from 2.5 to 4.5, preferably a pH of from 3.0 to 4.2, and most preferably a pH of from 3.5 to 4.0.

[3] = In-vivo exposure of the drug after micronization; settings: micronized active substance
From the text: The pazopanib active substance is preferably micronized. […] Particle size reduction also helps to improve the mouth-feel of the suspension. Micronization may be achieved using techniques known in the art. According to one embodiment, particle size reduction is achieved through the use of fluid energy jet mill wherein the powder gets suspended in a high velocity nitrogen gas stream in a milling chamber, and particle size is reduced due to the principle of impact and attrition due to the high velocity collisions between particles suspended within the nitrogen gas stream, causing them to break down into smaller particles. Centrifugal force causes the larger, heavy particles to separate from smaller, lighter particles. The small particles are dragged by the escaping fluid stream towards the center of the mill, where they are discharged into filter bags, and the material is then collected into drums. The large particles are thrown outward where they recirculate and re-collide, causing them to breakdown. According to one embodiment, the resulting particle size distribution of pazopanib hydrochloride particles is >90% between 0.61 and 10.0 microns. In another embodiment, at least 50% is from 1 to 10 microns, preferably from 1.1 to 3.9 microns. In another embodiment 90% is 20 microns or less, preferably 10 microns or less.

[4] = Citric Acid/Sodium Citrate 0.2M, initial pH 4.0, PVP 0% wt/wt, 5° C./Ambient
[5] = Citric Acid/Sodium Citrate 0.5M, initial pH 4.0, PVP 0% wt/wt, 25° C./60% RH
[6] = Citric Acid/Sodium Phosphate 0.1M, initial pH 4.0, PVP 0% wt/wt, 25° C./60% RH
[7] = Citric Acid/Sodium Phosphate 0.2M, initial pH 4.0, PVP 0% wt/wt, 25° C./60% RH
[8] = citric acid and sodium phosphate buffer, pH 4.0, 0.05 to 0.20 M, no PVP, 25° C./60% RH

Physical Stability ([1]; Citric Acid/Sodium Citrate 0.05M, initial pH 4.0, PVP 0% wt/wt, 5° C./Ambient): 43 days
Physical Stability: conversion to citrate salt by day [1, 4]: by day 42
Physical Stability: mixture of forms by day [1, 4]: day 21;
Physical Stability: conversion to citrate salt by day ([1]; Citric Acid/Sodium Citrate 0.2M, initial pH 4.0, PVP 0% wt/wt, 25° C./60% RH): day 7
Physical Stability: conversion to citrate salt by day ([1]; Citric Acid/Sodium Citrate 0.5M, initial pH 4.0, PVP 0% wt/wt, 5° C./Ambient): day 14
Physical Stability: conversion to citrate salt by day [1, 5]: day 14
Physical Stability: mixture of forms at [1, 5]: initial;
Physical Stability ([1]; Citric Acid/Sodium Phosphate 0.05M, initial pH 4.0, PVP 0% wt/wt, 5° C./Ambient): 43 days
Physical Stability ([1]; Citric Acid/Sodium Phosphate 0.05M, initial pH 4.0, PVP 0% wt/wt, 25° C./60% RH): At least 7 Days;
Physical Stability ([1]; Citric Acid/Sodium Phosphate 0.1M, initial pH 4.0, PVP 0% wt/wt, 5° C./Ambient): 43 days
Physical Stability [1, 6]: At least 7 Days;
Physical Stability: mixture of forms by day [1, 6]: day 20
Physical Stability: conversion to citrate salt by day ([1]; Citric Acid/Sodium Phosphate 0.2M, initial pH 3.0, PVP 0% wt/wt, 5° C./Ambient): day 17
Physical Stability: conversion to citrate salt by day ([1]; Citric Acid/Sodium Phosphate 0.2M, initial pH 3.2, PVP 0% wt/wt, 5° C./Ambient): day 17
Physical Stability: conversion to citrate salt by day ([1]; Citric Acid/Sodium Phosphate 0.2M, initial pH 3.5, PVP 0% wt/wt, 5° C./Ambient): day 17
Physical Stability ([1]; Citric Acid/Sodium Phosphate 0.2M, initial pH 4.0, PVP 0% wt/wt, 5° C./Ambient): 43 days
Physical Stability [1, 7]: At least 7 Days;
Physical Stability: conversion to citrate salt by day [1, 7]: day 20
Physical Stability ([1]; PVP added, citric acid and sodium phosphate, pH 4.0, buffering strength 0.05 M): at least 20 days
pazopanib monohydrochloride salt maintained until ([1]; PVP levels between 3.8 to 7.4% w/w, inclusive, citric acid and sodium phosphate, pH 4.0, 0.05 M): 34 days
drug substance changes form to the hydrate and Citrate salts after reconstitution ([1]; buffered at pH 3.5 and below, citric acid and sodium phosphate, refrigerated 5° C.): less than 17 days
form conversion started on day ([1]; citric acid and sodium citrate buffer, pH 4.0, buffer strength 0.05 M to 0.5 M, 5° C.): ≥ 14 days
Conversion of pazopanib to the citrate salt observed at ([1]; citric acid and sodium citrate buffer, pH 4.0, buffer strength 0.05 M to 0.5 M, 25° C./60% RH): initial to day 7
citrate salt first observed on day [1, 8]: 20 days
form conversion detected at day [1, 8]: 7 days
stable (physical stability of suspension) ([1]; citric acid and sodium phosphate buffer, pH 4.0, 0.05 to 0.20 M, no PVP, refrigerated conditions): up to 43 days
pH-solubility profile ([2]; between pH 3 and pH 6, water (FIG. 2)): steep slope
solubility, effect of micronization ([2]; micronized active substance): enhance
in-vivo exposure, effect of micronization [3]: enhance
SMILES: Cc1ccc(Nc2nccc(N(C)c3ccc4c(C)n(C)nc4c3)n2)cc1S(N)(=O)=O [pazopanib, 5-[[4-[(2,3-dimethyl-2H-indazol-6-yl)methylamino]-2-pyrimidinyl]amino]-2-methylbenzenesulfonamide]
